According to paper PMC8271926, “1,3,5-Triazine Nitrogen Mustards with Different Peptide Group as Innovative Candidates for AChE and BACE1 Inhibitors” (Molecules, 2021):
Where two headings read alike, the source gives them in different places.

What was measured:
[1] = biological target: T1, AChE (from electrophorus electricus) (Electrophorus electricus, UniProt O42275); assay: In vitro AChE inhibition, Ellman's colorimetric method; format: biochemical
T1 construct: purchased Sigma-Aldrich C3389

[2] = biological target: T2, BACE1 (from equine serum) (Homo sapiens, UniProt P56817); assay: In vitro BACE1 inhibition, FRET assay; format: biochemical
T2 construct: purchased Sigma-Aldrich CS0010
T2 sequence (P56817 46-457 limits assumed): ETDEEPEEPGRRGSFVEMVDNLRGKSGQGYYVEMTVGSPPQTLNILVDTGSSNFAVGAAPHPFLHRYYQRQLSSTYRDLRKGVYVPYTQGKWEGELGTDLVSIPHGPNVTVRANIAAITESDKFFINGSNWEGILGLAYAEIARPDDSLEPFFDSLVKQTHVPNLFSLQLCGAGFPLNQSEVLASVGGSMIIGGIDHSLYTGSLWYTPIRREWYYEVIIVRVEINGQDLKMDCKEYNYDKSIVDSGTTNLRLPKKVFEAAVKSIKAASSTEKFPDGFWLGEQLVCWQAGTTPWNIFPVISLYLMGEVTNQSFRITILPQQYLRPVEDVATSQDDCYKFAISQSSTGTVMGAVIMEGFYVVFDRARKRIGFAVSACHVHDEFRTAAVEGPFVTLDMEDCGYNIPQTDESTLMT

[3] = test system: AChE; conditions: Jameel et al.; read-out: AChE inhibition IC50; cited from earlier work
[4] = test system: BACE1; conditions: Iraji et al.; cited from earlier work
[5] = cell-based assays; cited from earlier work
[6] = test system: GSK-3β; conditions: in vitro; cited from earlier work
[7] = test system: BACE-1; conditions: in vitro; cited from earlier work
[8] = test system: BACE1; conditions: Yazdani et al.; cited from earlier work
[9] = mean ± SD of three independent experiments, read-out: BACE1 IC50

T1 sequence (O42275 24-633): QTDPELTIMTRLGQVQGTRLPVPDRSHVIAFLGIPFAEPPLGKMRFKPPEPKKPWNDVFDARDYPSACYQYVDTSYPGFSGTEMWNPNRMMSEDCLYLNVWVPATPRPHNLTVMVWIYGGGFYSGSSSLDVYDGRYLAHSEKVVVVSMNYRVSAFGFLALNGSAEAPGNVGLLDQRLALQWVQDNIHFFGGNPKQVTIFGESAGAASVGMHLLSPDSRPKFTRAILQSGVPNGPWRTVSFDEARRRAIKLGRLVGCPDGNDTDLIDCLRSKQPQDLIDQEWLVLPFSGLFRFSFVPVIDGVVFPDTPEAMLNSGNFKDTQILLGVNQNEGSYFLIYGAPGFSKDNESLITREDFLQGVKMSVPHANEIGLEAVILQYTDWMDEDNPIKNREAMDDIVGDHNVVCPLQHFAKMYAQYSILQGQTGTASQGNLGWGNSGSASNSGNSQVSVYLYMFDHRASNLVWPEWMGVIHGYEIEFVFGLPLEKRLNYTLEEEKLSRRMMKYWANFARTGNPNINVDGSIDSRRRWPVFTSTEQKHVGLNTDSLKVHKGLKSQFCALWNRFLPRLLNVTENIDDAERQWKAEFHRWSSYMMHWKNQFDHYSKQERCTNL

SMILES | IC50 [1] [µM] | IC50 [2, 9] [µM] | further results
COC(=O)C(C)NC(=O)C(CCCNC(=N)N[N+](=O)[O-])Nc1nc(OC)nc(N2CCN(CCCl)CC2)n1 (stereo not drawn) [4f, 2-[4-(2-Chloroethyl)Piperazin-1-yl]-4-Methoxy-6-(NH-Arg(NO2)-Ala-OMe) -1,3,5-Triazine] | 1.44 ± 0.029 | 52 ± 8.55 | –
Cc1cccc(Nc2nc(Cl)nc(N3CCN(c4cc(C)nc5ccnn45)CC3)n2)c1 [C] | – | – | IC50 [3]: 0.065 µM
COC(=O)C(C)NC(=O)C(C)(C)Nc1nc(OC)nc(N2CCN(CCCl)CC2)n1 (stereo not drawn) [4e, 2-[4-(2-Chloroethyl)Piperazin-1-yl]-4-Methoxy-6-(NH-Aib-Ala-OMe) -1,3,5 -Triazine] | 0.789 ± 0.031 | 51 ± 7.99 | –
Oc1ccc(/C=N/Nc2nnc(-c3cccs3)c(-c3cccs3)n2)c(O)c1 [H] | – | – | IC50 [4]: 0.91 µM
COC(=O)C(C)NC(=O)C(CCCCNC(=O)OC(C)(C)C)Nc1nc(OC)nc(N2CCN(CCCl)CC2)n1 (stereo not drawn) [4a, 2-[4-(2-Chloroethyl)Piperazin-1-yl]-4-Methoxy-6-(NH-Lys(Boc)-Ala -OMe)-1,3,5-Triazine] | 0.055 ± 0.001 | 11.1 ± 2.29 | –
COC(=O)C(C)NC(=O)C(Cc1cn(C(=O)OC(C)(C)C)c2ccccc12)Nc1nc(OC)nc(N2CCN(CCCl)CC2)n1 (stereo not drawn) [4c, 2-[4-(2-Chloroethyl)Piperazin-1-yl]-4-Methoxy-6-(NH-Trp(Boc)-Ala-OMe)-1,3,5-Triazine] | 0.114 ± 0.012 | 18.1 ± 2.69 | –
ClCCN1CCN(c2nc(Nc3ccccc3)nc(N3CCN(CCCl)CC3)n2)CC1 [A] | 0.051 ± 0.001 | 9 ± 0.22 | –
NC1=NC(c2ccc(F)cc2)NC(=O)N1 (stereo not drawn) [E] | – | – | neuroprotective and neurogenic activities [5]: effective; neurotoxicity [5]: no neurotoxicity; IC50 [6]: 14.7 ± 0.78 µM; IC50 [7]: 18.03 ± 0.01 µM
O=[N+]([O-])c1ccc(Cn2cc(COc3ccc(/C=N/Nc4nnc(-c5ccccc5)c(-c5ccccc5)n4)cc3)nn2)cc1 [G] | – | – | IC50 [8]: 11.4 ± 2.01 µM
Clc1ccc(Cn2cc(COc3ccc(/C=N/Nc4nnc(-c5ccccc5)c(-c5ccccc5)n4)cc3)nn2)cc1 [F] | – | – | IC50 [8]: 8.55 ± 3.37 µM
COC(=O)C(C)NC(=O)C(Cc1c[nH]c2ccccc12)Nc1nc(OC)nc(N2CCN(CCCl)CC2)n1 (stereo not drawn) [4g, 2-[4-(2-Chloroethyl)Piperazin-1-yl]-4-Methoxy-6-(NH-Trp-Ala-OMe)- 1,3,5- Triazine] | 0.122 ± 0.014 | 28.1 ± 3.69 | –
COC(=O)C(C)NC(=O)C(CC(=O)OC(C)(C)C)Nc1nc(OC)nc(N2CCN(CCCl)CC2)n1 (stereo not drawn) [4b, 2-[4-(2-Chloroethyl)Piperazin-1-yl]-4-Methoxy-6-(NH-Asp(OtBu)-Ala-OMe)-1,3,5-Triazine] | 0.065 ± 0.002 | 33.8 ± 3.91 | –
COC(=O)C(C)NC(=O)C(Cc1cn(S(=O)(=O)c2ccc(C)cc2)cn1)Nc1nc(OC)nc(N2CCN(CCCl)CC2)n1 (stereo not drawn) [4h, 2-[4-(2-Chloroethyl)Piperazin-1-yl]-4-Methoxy-6-(NH-His(Ts)-Ala-OMe)-1,3,5-Triazine] | – | – | IC50 ([1]; read-out: AChE IC50, AChE from electric eel, Ellman's method, mean ± SD of three independent experiments): 0.067 ± 0.003 µM; IC50 ([2]; read-out: BACE1 IC50, mean ± SD of three independent experiments): 14.2 ± 3.45 µM
COC(=O)C(C)NC(=O)C(COCc1ccccc1)Nc1nc(OC)nc(N2CCN(CCCl)CC2)n1 (stereo not drawn) [4d, 2-[4-(2-Chloroethyl)Piperazin-1-yl]-4-Methoxy-6-(NH-Ser (Bn)-Ala -OMe) -1,3,5-Triazine] | 0.387 ± 0.054 | 58.1 ± 9.69 | –
COc1ccc(Nc2nc(Cl)nc(N3CCN(c4cc(C)nc5ccnn45)CC3)n2)cc1 [D] | – | – | IC50 [3]: 0.092 µM
